Experimental data: patent US20230142647A1, “METHOD OF TREATING CANCER OR A BLOOD DISORDER” (priority 2021, published 2023)
Read-outs that look alike come from different tables or passages of the source.

Experiments:
HL-60 cell line = assay: AML HL-60 cell line cell counts and morphologic differentiation; type: cell-based; details: Valtrate 6 μM, CAPE 4 μM, 5-AC 2.5 μM, selinexor 20 nM, day 5
Protocol: Cell counts obtained using automated counter, Mean±SD (3 experiments) cell morphology obtained from the same cell culture. P<0.01 significant, t test (2 sided). The small molecule agents were used in dosages: Valtrate (6 μM), CAPE (4 μM), 5-AC (2.5 μM), selinexor (20 nM) and in the combinations relative to vehicle. cell counts (day 0-5) and morphology (day 5). (FIG. 3A) Valtrate, 5-AC, and Valtrate+5-AC cell count and morphologic changes relative to vehicle and individual agents. (FIG. 3B) CAPE, 5-AC, and CAPE+5-AC cell counts day 0-5 and morphologic changes on day 5 relative to vehicle and individual agents. (FIG. 3C) Combinational groups of 5-AC+valtrate, 5-AC+CAPE, and 5-AC+selinexor morphologic development (day 5) are compared.
The low dosages were purposed for use in combination with low dose 5-AC, Such as to position AML cells in a state of hypomethylated accessible chromatin with increased nuclear transcription factors. cell counts and morphologic alterations were observed. Dosages for this purpose were: Valtrate (6 μM), CAPE (4 μM), 5-AC (2.5 μM), and for comparing with Selinexor (20 nM) the same dosages were used for combinations.

[1] = test system: human NPM1/FLT3-mutated AML cells; assay: single agent survival experiment in PDX model with NPM1/FLT3 mutations (Example 2); type: in vivo, mice; details: 3x/wk from day 24; for survival benefit compared to vehicle (in words): Valtrate 10 mg/kg, CAPE 50 mg/kg, selinexor 7 mg/kg by oral gavage
Protocol: FIG. 4A. Experiment plan diagram. […] THU inhibits cytidine deaminase(CDA) to prolong 5-AC half-life. Treatment was initiated at day 24 and then repeated three times a week. Mice were humanly euthanized after becoming moribund or losing 15% of their initial weight in accordance with institutional guidelines. (FIG. 4B) Survival presented as Kaplan-Meier survival analysis graph from inoculation time to distress. P values and log-rank test are calculated and plotted. […] Mean±SD.
Immunodeficient NSG mice are xenotransplanted with human NPM1/FLT3-mutated AML cells.
On day 24 mice were assigned for treatment groups (n=5 per group). The treatment groups are 1) Vehicle, 2) Valtrate 10 mg/kg by oral gavage, 3) CAPE 50 mg/kg by oral gavage, 4) selinexor 7 mg/kg by oral gavage, 5) 5-AC2 mg/kg subcutaneously, and 6) 5-AC(2 mg/kg) subcutaneously+THU (20 mg/kg) intraperitoneally. The addition of THU extends 5-AC half-life, by inhibiting the enzyme cytidine deaminase(CDA), which degrades 5-AC. Treatment started on day 24, 3×/wk. (FIG. 4A). […] Groups are compared with vehicle and with each other. To monitor progress periodic blood counts are analyzed along with distress signs.

AML (NPM1-FLT3 and MLL) = type: in vivo
[2] = test system: AML with NPM1/FLT3 mutations cells; assay: survival study of combinations in high tumor load PDX model of NPM1/FLT3 mutations (Example 4); type: in vivo, mice; details: at distress point or day 200
Excerpt: FIG. 9A Treatment groups illustration: Primary acute myelogenous leukemia (AML) patient cells with Nucleophosmin 1 and fins-like tyrosine kinase-3 mutations (NPM1/FLT3) were xenotranplanted into immunodeficient Nod-SCID-IL-2Rgamma-null mice (NSG, Jackson Laboratory) by injecting 1×10^6 cells IV (n=5 per group) at day 0 (D0). Engraftment D28≥45% bone engraftment was confirmed in 3 randomly selected mice. At D28 mice were divided in to five treatment groups (n=5 per group), 1) Vehicle, 2) 5-AC(2 mg/kg)/THU(20 mg/kg), 3) 5-AC(2 mg/kg)/THU(20 mg/kg)/selinexor (5 mg/kg), 4) 5-AC(2 mg/kg)/THU(20 mg/kg)/CAPE (50 mg/kg) and 5) 5-AC(2 mg/kg)/THU(20 mg/kg)/Valtrate(10 mg/kg). […]
Peripheral blood analysis of WBCs, hemoglobin Hb, and platelets count. peripheral blood obtained by tail vein phlebotomy and serial blood counted on day 0, 45, 100, 140 and 200. And analyzed by HemaVet blood lab. […]
An image analysis to evaluate tumor burden of the spleens, was by histologic identification of relatively large infiltrating AML cells, replacing normal splenic structure by H&E staining of spleen sections. Image analysis of cell counts were plotted and quantified. […]
Furthermore, efficacy vs toxicity is best assessed by serial peripheral blood analysis of WBCs, hemoglobin Hb, and platelets. […] Blood samples were analyzed by HemaVet blood lab. […]

| Compound | spindle shaped cells (terminal fate morphology) (HL-60 cell line) | survival benefit compared to vehicle (in words) [1] | femoral and tibial bone appearance (white = leukemia replacement, red/dark = functional hematopoiesis) [2] | other results |
| --- | --- | --- | --- | --- |
| O=C(/C=C/c1ccc(O)c(O)c1)OCCc1ccccc1 [CAPE, Caffeic Acid Phenethyl Ester] | not observed | minimal | – | synergy in combination with 5-AC (AML (NPM1-FLT3 and MLL); oral Valtrate 10 mg/kg 3x/wk or CAPE 50 mg/kg 3x/wk, in combination with 5-AC): effective synergetic action |
| Valtrate | – | minimal | – | synergy in combination with 5-AC (AML (NPM1-FLT3 and MLL); mouse, in vivo): effective synergetic action |
| O=C(/C=C\n1cnc(-c2cc(C(F)(F)F)cc(C(F)(F)F)c2)n1)NNc1cnccn1 [selinexor] | not observed | minimal | – | – |
| Nc1ncn([C@@H]2O[C@H](CO)[C@@H](O)[C@H]2O)c(=O)n1 [5-AC, 5-Azacytidine] | – | – | White pale bones | survival benefit ([1]; 5-AC 2 mg/kg subcutaneously, THU 20 mg/kg intraperitoneally): more than 25 days |
| O=C1NC(O)CCN1[C@@H]1O[C@H](CO)[C@@H](O)[C@H]1O (stereo partly shown) [THU, Tetrahydrouridine] | – | – | White pale bones | – |
